Laboratory results from ChEMBL document CHEMBL4651402, “Screening of ~5500 FDA-approved drugs and clinical candidates for anti-SARS-CoV-2 activity” (2021).

Tests used:
[1] = tested on: SARS-CoV-2; test: microbe, parasite or virus in culture; type: functional, organism-based, Chlorocebus sabaeus, Vero C1008; settings: Severe acute respiratory syndrome coronavirus 2, Vero C1008, 48 h
[2] = tested on: SARS-CoV-2; test: microbe, parasite or virus in culture; settings: Severe acute respiratory syndrome coronavirus 2, Vero C1008, 48 h

Compound | IC50 ([1]; read-out: IC50) [µM] | IC50 ([1]; read-out: pIC50 (converted)) [µM] | IC50 [2] [µM] | IC50 ([2]; read-out: pIC50 (converted)) [µM]
CN1c2c([nH]c(N)nc2=O)NCC1CNc1ccc(C(=O)N[C@@H](CCC(=O)O)C(=O)O)cc1 (stereo not given in full) | > 20 | > 20 | – | –
CN(C[C@@H]1COCCO1)S(=O)(=O)Nc1ccc2ccc3ncc(-c4cnn(C)c4)cc3c(=O)c2c1 [MK-2461] | > 20 | > 20 | > 20 | > 20
CN1CC(=O)N=C1NC(=O)Nc1cccc(Cl)c1 [FENOBAM ANHYDROUS] | > 25.1 | > 25.1 | > 20 | > 20
Nc1ccn([C@@H]2O[C@H](CO)[C@@H](O)[C@@H]2O)c(=O)n1 [CYTARABINE] | > 20 | > 20 | > 50.1 | > 50.1
CC(C)CN(C[C@H](O)[C@H](Cc1ccccc1)NC(=O)O[C@H]1CO[C@@H]2OCC[C@@H]21)S(=O)(=O)c1ccc(N)cc1 | > 20 | > 20 | > 20 | > 20
Cc1nc(OCCCCCN2CCCCC2)cc(-c2ccc(F)cc2)n1 [ENECADIN] | 21.9 | 21.9 | 1.74 | 1.74
CCOc1ccc(-n2c([C@@H](C)N(Cc3cccnc3)C(=O)Cc3ccc(OC(F)(F)F)cc3)nc3ncccc3c2=O)cc1 (racemic) | > 20 | > 20 | > 20 | > 20
COc1cccc2c1C(=O)c1c(O)c3c(c(O)c1C2=O)C[C@@](O)(C(=O)CO)C[C@@H]3O[C@H]1C[C@H](N)[C@@H](O)[C@H](C)O1 [EPIRUBICIN] | > 100 | > 100 | – | –
NCCCCCN | > 20 | > 20 | – | –
CCC[C@@H]1CC(=O)N([C@@H](CC)C(N)=O)C1 [BRIVARACETAM] | – | – | > 20 | > 20
O=C(O)[C@H]1CCCC[C@]1(O)c1ccccc1 | – | – | > 20 | > 20
OC[C@H]1O[C@@H](n2cnc3c(NCc4ccco4)ncnc32)[C@H](O)[C@@H]1O [KINETIN RIBOSIDE] | – | – | > 20 | > 20
COc1cc(NS(=O)(=O)c2ccc(N)cc2)nc(OC)n1 [SULFADIMETHOXINE] | – | – | > 20 | > 20
CN1c2ccccc2[C@H](NCCCCCCC(=O)O)c2ccc(Cl)cc2S1(=O)=O | – | – | > 20 | > 20
CC(C)N(CCC(C(N)=O)(c1ccccc1)c1ccccc1)C(C)C | – | – | > 20 | > 20
Nc1nc(N)c2nc(CNc3ccc(C(=O)N[C@@H](CCC(=O)O)C(=O)O)cc3)cnc2n1 [AMINOPTERIN] | – | – | > 20 | > 20
CC(CCC(=O)O)C1CCC2C3C[C@H](O)[C@@H]4C[C@H](O)CC[C@]4(C)C3CC[C@]12C (stereo not given in full) | – | – | > 20 | > 20
CCC(=O)OC1(c2ccccc2)CCN(C)CC1 | – | – | > 20 | > 20
CC(=O)O[C@H]1CC[C@@]2(C)[C@H](CC[C@@H]3[C@@H]2CC[C@]2(C)C(=O)CC[C@@H]32)C1 | – | – | > 20 | > 20
CCc1[nH]c(=O)[nH]c1C(=O)c1ccncc1 [PIROXIMONE] | – | – | > 20 | > 20
CC(C[N+](C)(C)C)OC(N)=O (stereo not given) [BETHANECHOL] | – | – | > 20 | > 20
CC1(C)C2=CCC3C(CCC4(C)C3CC[C@]4(C)O)C2(C)Cc2cnoc21 (stereo not given in full) | – | – | > 20 | > 20
O=C(NCCc1ccc(O)c(O)c1)C12CC3CC(CC(C3)C1)C2 [DOPAMANTINE] | – | – | > 20 | > 20
N[C@@H]1CCCCN(c2c(F)cc3c(=O)c(C(=O)O)cn(C4CC4)c3c2Cl)C1 [BESIFLOXACIN] | – | – | > 20 | > 20
Cc1nnc2n1-c1ccc(Cl)cc1C(c1ccccc1Cl)=NC2 [TRIAZOLAM] | – | – | > 20 | > 20
COc1cc(-c2ccc(/N=N/c3ccc4c(S(=O)(=O)O)cc(S(=O)(=O)O)c(N)c4c3O)c(OC)c2)ccc1/N=N/c1ccc2c(S(=O)(=O)O)cc(S(=O)(=O)O)c(N)c2c1O [CHICAGO SKY BLUE] | – | – | > 20 | > 20
CC(=O)Oc1ccc(-c2ccc(F)cc2)cc1C(=O)O [FLUFENISAL] | – | – | > 20 | > 20

Compound | IC50 ([1]; read-out: IC50) [µM] | IC50 ([1]; read-out: pIC50 (converted)) [µM] | IC50 [2] [µM] | IC50 ([2]; read-out: pIC50 (converted)) [µM]
CNCC[C@@H](Oc1ccccc1C)c1ccccc1 [ATOMOXETINE] | – | – | > 20 | > 20
CCN(CC)CCOc1ccc(Cc2ccccc2)cc1 | – | – | > 20 | > 20
CC(=O)O[C@@]12CO[C@@H]1C[C@H](O)[C@@]1(C)C(=O)[C@H](O)C3=C(C)[C@@H](OC(=O)[C@H](O)[C@@H](NC(=O)OC(C)(C)C)c4ccccc4)C[C@](O)([C@@H](OC(=O)c4ccccc4)[C@H]21)C3(C)C | – | – | > 20 | > 20
CCN1CCN=C1CNC(=O)c1cc(Cl)c(N)cc1OC [LINTOPRIDE] | – | – | > 20 | > 20
CCCCOc1cc(C(=O)OCCN(CC)CC)ccc1N [BENOXINATE] | – | – | > 20 | > 20
O=C(Nc1cccnn1)N1CCC(=Cc2cccc(Oc3ccc(C(F)(F)F)cn3)c2)CC1 | – | – | > 20 | > 20
CN1CCCCC1c1ccc(-c2cccnc2)nc1 (stereo not given) | – | – | > 20 | > 20
Nc1ncnc2c1ncn2[C@@H]1O[C@H](COP(=O)(O)O)[C@@H](O)[C@H]1O [ADENOSINE PHOSPHATE] | – | – | > 20 | > 20
Cc1cccc(C)c1NC(=O)C(C)N (stereo not given) [TOCAINIDE] | – | – | > 20 | > 20
N#Cc1cc(CN2CCC(Nc3ncnc4sc(Cl)cc34)CC2)ccc1F [PRX-08066 FREE BASE] | – | – | > 20 | > 20
CCC[C@@H]1C[C@@H](C(=O)N[C@@H](C(C)O)[C@H]2O[C@H](SC)[C@H](O)[C@@H](O)[C@H]2O)N(C)C1 (stereo not given in full) | – | – | > 20 | > 20
CC(=O)OCC(=O)[C@@]1(OC(C)=O)[C@@H](C)C[C@H]2[C@@H]3C[C@H](F)C4=CC(=O)C=C[C@]4(C)[C@@]3(F)[C@@H](O)C[C@@]21C [DIFLORASONE DIACETATE] | – | – | > 20 | > 20
O=C(O)COc1ccc(CCNS(=O)(=O)c2ccccc2)cc1 [SULOTROBAN] | – | – | > 20 | > 20
CCCCCCCCN=c1ccn(CCCCCCCCCCn2ccc(=NCCCCCCCC)cc2)cc1 [OCTENIDINE] | – | – | > 20 | > 20
Cn1c(=O)n(-c2ccc(C(C)(C)C#N)cc2)c2c3cc(-c4cnc5ccccc5c4)ccc3ncc21 [DACTOLISIB] | – | – | > 20 | > 20
O=c1c(O)c(-c2ccccc2)oc2cc(O)ccc12 [3,7-DIHYDROXYFLAVONE] | – | – | > 20 | > 20
CN1C(=O)CN2CCc3ccccc3C2c2cc(Cl)ccc21 (stereo not given) [CLAZOLAM] | – | – | > 20 | > 20
CC(C)NC[C@@H](C(=O)N1CCN(c2ncnc3c2[C@H](C)C[C@H]3O)CC1)c1ccc(Cl)cc1 [IPATASERTIB] | – | – | > 20 | > 20
COC1=CC(=O)O[C@@H](/C=C/c2ccccc2)C1 (racemic) [KAVAIN] | – | – | > 20 | > 20
COc1cc2c(cc1OC)CC(=O)N(CCCN(C)C[C@H]1Cc3cc(OC)c(OC)cc31)CC2 [IVABRADINE] | – | – | > 20 | > 20
COc1cccc(N(C)C(=S)Oc2ccc3c(c2)CCCC3)n1 [LIRANAFTATE] | – | – | > 20 | > 20
OCCN(CCO)c1nc(-c2ccccc2)c(-c2ccccc2)o1 [DITAZOLE] | – | – | > 20 | > 20
C#C[C@@]1(O)[C@@H](CO)O[C@@H](n2ccc(N)nc2=O)[C@@H]1O [TAS-106] | – | – | > 20 | > 20
CC(N)C(=O)c1ccccc1 (stereo not given) [DEALKYLATED DIETHYLPROPION] | – | – | > 20 | > 20
CC(C)(Cc1ccccc1)NCC(O)c1ccc(O)c(NS(C)(=O)=O)c1 (stereo not given) [ZINTEROL] | – | – | > 20 | > 20
CC(C)(C)c1ccc(S(=O)(=O)Nc2ccc(Cl)cc2C(=O)c2cc[n+]([O-])cc2)cc1 [VERCIRNON] | – | – | > 20 | > 20
O=C(Nc1cccc2c(=O)cc(-c3nnn[nH]3)oc12)c1ccc(OCCCCc2ccccc2)cc1 | – | – | > 100 | > 100
